Article PMC6115343 (The Korean Journal of Physiology & Pharmacology : …, 2018)

Target: Transient receptor potential vanilloid 1 (TRPV1) (Mus musculus, UniProt Q704Y3)
Experiment: whole-cell patch clamp of native TRPV1 currents in cultured mouse DRG neurons
Format: cell-based

Transient receptor potential vanilloid 1 (TRPV1), sequence (Q704Y3 whole entry): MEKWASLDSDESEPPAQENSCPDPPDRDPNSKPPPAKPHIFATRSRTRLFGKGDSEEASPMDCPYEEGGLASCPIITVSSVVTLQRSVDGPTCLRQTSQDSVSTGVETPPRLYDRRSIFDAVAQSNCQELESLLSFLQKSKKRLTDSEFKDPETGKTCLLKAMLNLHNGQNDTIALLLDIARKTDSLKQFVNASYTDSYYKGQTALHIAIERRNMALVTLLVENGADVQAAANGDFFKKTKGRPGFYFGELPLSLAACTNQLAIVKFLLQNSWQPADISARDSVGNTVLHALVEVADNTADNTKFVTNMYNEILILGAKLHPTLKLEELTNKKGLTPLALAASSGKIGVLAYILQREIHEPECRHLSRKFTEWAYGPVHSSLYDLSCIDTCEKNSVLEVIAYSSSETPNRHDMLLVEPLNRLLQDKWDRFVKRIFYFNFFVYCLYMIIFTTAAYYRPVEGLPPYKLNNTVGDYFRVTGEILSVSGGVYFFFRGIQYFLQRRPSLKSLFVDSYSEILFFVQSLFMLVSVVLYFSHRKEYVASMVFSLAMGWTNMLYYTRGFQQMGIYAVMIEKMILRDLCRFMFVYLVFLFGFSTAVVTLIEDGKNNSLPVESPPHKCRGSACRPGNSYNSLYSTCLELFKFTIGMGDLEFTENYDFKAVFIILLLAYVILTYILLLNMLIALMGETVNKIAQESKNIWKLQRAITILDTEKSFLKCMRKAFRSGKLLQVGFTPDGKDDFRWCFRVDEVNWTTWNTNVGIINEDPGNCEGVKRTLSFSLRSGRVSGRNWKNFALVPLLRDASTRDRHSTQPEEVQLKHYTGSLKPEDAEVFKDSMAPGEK

Question: How did the IC50 turn out when COc1cc(/C=C/C(=O)CC(=O)/C=C/c2ccc(O)c(OC)c2)ccc1O [curcumin] was run?
Answer: 523 nM
